Data: patent publication US20240308992A1 (Biopolar Youtang(Guangdong) Pharmaceutical Co., Ltd., priority 2021, published 2024)

What follows are compounds tested against T1, Drak2 (Homo sapiens, UniProt O94768) (assay: Drak2 activity test, ADP-Glo kinase assay (Promega)). Conditions: inhibition of Drak2 kinase activity, 2 h room temperature, activity range classes, read-out: IC50_Drak2.
T1 sequence (O94768 1-372): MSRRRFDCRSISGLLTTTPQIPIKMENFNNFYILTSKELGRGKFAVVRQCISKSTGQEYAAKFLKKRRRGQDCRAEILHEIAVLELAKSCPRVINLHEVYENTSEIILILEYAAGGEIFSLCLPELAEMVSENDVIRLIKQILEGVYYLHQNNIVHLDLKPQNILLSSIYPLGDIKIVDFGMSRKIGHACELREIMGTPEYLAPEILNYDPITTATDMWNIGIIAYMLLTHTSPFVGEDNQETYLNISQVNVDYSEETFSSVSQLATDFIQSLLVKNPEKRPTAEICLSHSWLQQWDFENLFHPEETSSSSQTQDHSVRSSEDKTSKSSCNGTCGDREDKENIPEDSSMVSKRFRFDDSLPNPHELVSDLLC
Assay type: biochemical

Row | SMILES | IC50 [nM]
1 | CC(C)n1ncc2ccc(-c3cncc(-c4cc(NC(=O)CC5CCC5)cs4)n3)cc21 [Example 213, 2-Cyclobutyl-N-(5-{6-[1-(propyl-2-yl)indazol-6-yl]pyrazin-2-yl}thiophen-3-yl) acetamide] | 101 to 1000
2 | CCCCC(=O)Nc1csc(-c2cncc(-c3ccc(C(=O)Nc4nccs4)c(OC)c3)n2)c1 [Example B8, 2-methoxy-4-(6-(4-pentanamidothiophen-2-yl)pyrazin-2-yl)-N-(thiazol-2-yl)benzamide] | 1000 to 10000
3 | COc1cc(-c2cncc(-c3cc(NC(=O)CC4CCC4)cs3)n2)ccc1-c1ncc2c(n1)CCN(Cc1ccccc1)C2 [Example 208, N-(5-(6-(4-(6-benzyl-5,6,7,8-tetrahydropyrido [4,3-d]pyrimidin-2-yl)-3-methoxyphenyl)pyrazin-2-yl)thiophen-3-yl)-2-cyclobutyl Acetamide] | 101 to 1000
4 | COc1cc(-c2cncc(-c3cc(NC(=O)CC4CC4)cs3)n2)ccc1C(=O)Nc1cn(C)nc1OC [Example B42, 4-(6-(4-(2-cyclopropylacetamido)thiophen-2-yl)pyrazin-2-yl)-2-methoxy-N-(3-methoxy-1-methyl-1H-pyrazol-4-yl)benzamide] | 101 to 1000
5 | COc1cc(-c2cncc(-c3cc(NC(=O)C(N)C4CCC4)cs3)n2)ccc1C(=O)N(C)C1CCN(C)CC1 (stereo not drawn) [Example B88, 4-(6-(4-(2-amino-2-cyclobutylacetamido)thiophen-2-yl)pyrazin-2-yl)-2-methoxy-N-methyl-N-(1-methylpiperidin-4-yl)benzamide] | 101 to 1000
6 | CCN(CC)C(=O)Nc1csc(-c2cncc(-c3ccc(OC)c(OC)c3)n2)n1 [Example D4, 3-(2-(6-(3,4-dimethoxyphenyl)pyrazin-2-yl)thiazol-4-yl)-1,1-diethylurea] | 1000 to 10000
7 | CCCC(=O)Nc1csc(-c2cncc(-c3ccc(C(=O)Nc4nnn[nH]4)c(OC)c3)n2)c1 [Example B9, 2-methoxy-4-(6-(4-butyramidothiophen-2-yl)pyrazin-2-yl)-N-(1H-tetrazol-5-yl)benzamide] | 101 to 1000

The next lines start with the values.

Row | IC50 [nM] | SMILES
8 | 101 to 1000 | CCCCC(=O)Nc1csc(-c2cncc(-c3ccc(OC)c(C#N)c3)n2)c1 [Example A21, N-(5-(6-(3-cyano-4-methoxyphenyl)pyrazin-2-yl)thiophen-3-yl)pentanamide]
9 | 11 to 100 | COc1cc(-c2cncc(-c3cc(NC(=O)CC4CCC4)cs3)n2)ccc1C(=O)N(C)CCN(C)C [Example B57, 4-(6-(4-(2-cyclobutylacetamido)thiophen-2-yl)pyrazin-2-yl)-N-(2-(dimethylamino)ethyl)-2-methoxy-N-methylbenzamide]
10 | 101 to 1000 | COc1cc(-c2cncc(-c3cc(NC(=O)CC4(N)CCC4)cs3)n2)ccc1C(=O)N(C)C1CCN(C)CC1 [Example B94, 4-(6-(4-(2-(1-aminocyclobutyl)acetamido)thiophen-2-yl)pyrazin-2-yl)-2-methoxy-N-methyl-N-(1-methylpiperidin-4-yl)benzamide]
11 | 11 to 100 | COc1cc(-c2cncc(-c3cc(NC(=O)CC4CCC4)cs3)n2)ccc1OC(O)CN1CCOCC1=O (stereo not drawn) [Example 171]
12 | 11 to 100 | COc1cc(-c2cncc(-c3cc(NC(=O)CC4CCC4)cs3)n2)ccc1O [Example 183]
13 | 101 to 1000 | CCCCC(=O)Nc1csc(-c2cncc(-c3ccc(C#N)c(OC)c3)n2)c1 [Example A20, N-(5-(6-(4-cyano-3-methoxyphenyl)pyrazin-2-yl)thiophen-3-yl)pentanamide]
14 | 11 to 100 | CCCCC(=O)Nc1csc(-c2cncc(-c3ccc(OCCN4CC[S+]([O-])CC4)c(OC)c3)n2)c1 [Example 194, N-{5-[6-(3-methoxy-4-{[2-(1-oxo-1λ4-thiomorpholin-4-yl)ethyl]oxy}phenyl)pyrazin-2-yl]thiophen-3-yl} pentanamide]
15 | 11 to 100 | COc1cc(-c2cncc(-c3cc(NC(=O)C4CC45CCC5)cs3)n2)ccc1C(=O)N(C)C1CCN(C)CC1 (stereo not drawn) [Example B84, N-(5-(6-(3-methoxy-4-(methyl(1-methylpiperidin-4-yl)carbamoyl)phenyl)pyrazin-2-yl)thiophen-3-yl)spiro[2.3]hexane-1-carboxamide]
